Measured values as given in patent publication US20240207202A1, “COMBINATION THERAPIES TARGETING MITOCHONDRIAL BIOGENESIS FOR CANCER THERAPY” (The Wistar Institute of Anatomy and Biology, priority 2015, published 2024).

Test system: mitochondrial respiration
Test: Real-time oxygen consumption rates (Seahorse XF 24) in WM9 cells
Assay type: cell-based, human
Conditions: WM9, 72 h, Gamitrinib 1 μM added to PLX4720 10 μM and PD0325901 1 μM
Experimental: FIGS. 5A-5I. Gamitrinib, An Inhibitor of Mitochondrial Hsp90-directed Protein Folding, Suppresses Mitochondrial Biogenesis and Bioenergetics (A) Induction of apoptosis and cell death by PSVue 643 staining in WM9 melanoma cells treated for 72 h with the combination of Gamitrinib (Gami), Rapamycin, Phenformin (Phen), BEZ235 or 2,4-DNP at titrated doses and PLX4720 at 10 μM, PD0325901 at 1 μM and Gamitrinib at 2.5 μM. Cells treated with DMSO were used as the control. The data represent the average of 2 biological replicates. (B) Relative cell viability assessed by CellTiter Glo in WM9 cells treated for 72 h with DMSO, PLX4720 at 10 μM or the combination of PLX4720 at 10 μM and PD0325901 at 1 μM together with Gamitrinib at titrated doses. (C) Immunoblotting of proteins related to OxPhos, glycolysis, autophagy and the MAPK pathway in WM9 cells treated with PLX4720 at 10 μM and Gamitrinib as single inhibitors or in combination during a time course of 72 h. Cells treated with DMSO are used as the control. (D) Real-time oxygen consumption in WM9 cells subjected to the metabolic stress test with Seahorse XF 24 Analyzer. […] (H) Relative gene expression of 7 representative glycolysis genes assessed by qRT-PCR in WM9 cells treated for 48 h with DMSO or the combination of PLX4720 at 10 μM and PD0325901 at 1 μM with or without the addition of Gamitrinib at 2.5 μM. […]

## Gamitrinib
  oxygen consumption rates (basal respiration, proton leak, ATP production, maximal respiration, spare respiratory capacity): significantly inhibited all key parameters of OCR
